From patent US9540385B2, “Pyrrolopyrimidine compounds as kinase inhibitors” (Pharmacyclics LLC, priority 2012, dated 2017) come the findings set out here.

The term IC50 denotes the concentration that gives 50% inhibition.

For the assay, the target named is T1, BTK (Homo sapiens, UniProt Q06187).
T1 construct: purified from insect cells as a full-length construct containing a N-terminal 6×-His tag; His6 (N); made in house; host or cells: insect cells (baculovirus, Sf21)
T1 sequence (Q06187 whole entry): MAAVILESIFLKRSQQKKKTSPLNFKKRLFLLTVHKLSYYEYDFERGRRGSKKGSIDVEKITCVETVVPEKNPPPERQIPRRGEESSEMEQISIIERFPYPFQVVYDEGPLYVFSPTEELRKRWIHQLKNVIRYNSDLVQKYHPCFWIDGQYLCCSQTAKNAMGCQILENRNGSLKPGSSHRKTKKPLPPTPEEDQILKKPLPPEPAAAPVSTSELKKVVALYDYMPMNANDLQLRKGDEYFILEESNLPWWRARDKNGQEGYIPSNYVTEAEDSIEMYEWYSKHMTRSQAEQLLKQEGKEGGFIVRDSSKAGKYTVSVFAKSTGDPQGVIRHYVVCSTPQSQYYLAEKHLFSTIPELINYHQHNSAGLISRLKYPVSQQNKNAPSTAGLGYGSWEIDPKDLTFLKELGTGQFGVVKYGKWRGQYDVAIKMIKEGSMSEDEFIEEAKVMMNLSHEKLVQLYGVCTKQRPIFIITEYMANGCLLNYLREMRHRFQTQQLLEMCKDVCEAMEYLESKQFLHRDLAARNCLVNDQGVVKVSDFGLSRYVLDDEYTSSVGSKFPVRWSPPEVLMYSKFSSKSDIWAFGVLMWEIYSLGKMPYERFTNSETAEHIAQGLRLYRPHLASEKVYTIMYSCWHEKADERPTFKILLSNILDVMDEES
In words: Btk in vitro inhibitory activity / inhibition of a panel of kinases (TR-FRET, mobility shift or radiometric filter binding). It is filed as biochemical. As to conditions: kinase assay by one of methods A, B or C. The method, then:
Btk kinase activity is determined using a time-resolved fluorescence resonance energy transfer (TR-FRET) methodology. Measurements are performed in a reaction volume of 50 μL using 96-well assay plates. Kinase enzyme, inhibitor, ATP (at the Km for the kinase), and 1 μM peptide substrate (Biotin-AVLESEEELYSSARQ-NH2) are incubated in a reaction buffer composed of 20 mM Tris, 50 mM NaCl, MgCl2 (5-25 mM depending on the kinase), MnCl2 (0-10 mM), 1 mM DTT, 0.1 mM EDTA, 0.01% bovine serum albumin, 0.005% Tween-20, and 10% DMSO at pH 7.4 for one hour. The reaction is quenched by the addition of 1.2 equivalents of EDTA (relative to divalent cation) in 25 μL of 1× Lance buffer (Perkin-Elmer). Streptavidin-APC (Perkin-Elmer) and Eu-labeled p-Tyr100 antibody (Perkin-Elmer) in 1× Lance buffer are added in a 25 μL volume to give final concentrations of 100 nM and 2.5 nM, respectively, and the mixture is allowed to incubate for one hour. The TR-FRET signal is measured on a multimode plate reader with an excitation wavelength (λEx) of 330 nm and detection wavelengths (λEm) of 615 and 665 nm. Activity is determined by the ratio of the fluorescence at 665 nm to that at 615 nm. For each compound, enzyme activity is measured at various concentrations of compound. Negative control reactions are performed in the absence of inhibitor in replicates of six, and two no-enzyme controls are used to determine baseline fluorescence levels. Inhibition constants, Ki(app), ware obtained using the program BatchKi (Kuzmic et al. (2000), Anal. Biochem. 286:45-50). IC50s are obtained according to the equation: IC50={Ki(app)/(1+[ATP]/Km^ATP)}+[E]total/2;
For all kinases, [ATP]=Km^ATP, [Btk]total=0.5 nM and [Lck]total=6 nM.
Kinase activity is measured in vitro using electrophoretic mobility shift assay. The kinase reactions are assembled in a total volume of 25 μL in 384 well plates. The reactions comprise: BTK enzyme (1 nM, N-terminal His6-tagged, recombinant, full-length, human BTK purified from baculovirus Sf21 insect cell system), inhibitor, ATP ([…] the apparent Km for the kinase), fluorescently labeled peptide substrate (1 μM, FAM-GEEPLYWSFPAKKK-NH2) in a reaction buffer composed of 100 mM HEPES, pH7.5, 5 mM MgCl2 1 mM DTT, 0.1% bovine serum albumin, 0.01% Triton X-100, and 1% DMSO. The reaction is incubated for one hour and is quenched by the addition of 45 μL of termination buffer (100 mM HEPES, pH7.5, 0.01% Triton X-100, 30 mM EDTA). The terminated reactions are analyzed using 12 channel LabChip® 3000 microfluidic detection instrument (Caliper Life Sciences). The enzymatic phosphorylation of the peptide results in a change in net charge, enabling electrophoretic separation of product from substrate peptide. As substrate and product peptides are separated, two peaks of fluorescence are observed. Change in the relative fluorescence intensity of the substrate and product peaks is the parameter measured, reflecting enzyme activity. In the presence of an inhibitor, the ratio between product and substrate is altered: the signal of the product decreases, while the signal of the substrate increases.
Activity in each sample is determined as the product to sum ratio (PSR):P/(S+P), where P is the peak height of the product peptide and S is the peak height of the substrate peptide. For each compound, enzyme activity is measured at various concentrations (12 concentrations of compound spaced by 3× dilution intervals). Negative control samples (0%-inhibition in the absence of inhibitor) and positive control samples (100%-inhibition, in the presence of 20 mM EDTA) are assembled in replicates of four and are used to calculate %-inhibition values for each inhibitor at each concentration. Percent inhibition (Pinh) is determined using following equation: […]
(TR-FRET usually uses a lanthanide donor and a delayed reading to cut background.)
As to `Cc1c(-c2ccc(Oc3cccc(F)c3)cc2)c2c(N)ncnc2n1[C@@H]1CCCN(C(=O)/C=C/CN(C)C2CC2)C1` [Compound 76, (R,E)-1-(3-(4-amino-5-(4-(3-fluorophenoxyl)phenyl)-6-methyl-7H-pyrrolo[2,3-d]pyrimidin-7-yl)piperidin-1-yl)-4-(cyclopropyl(methyl)amino)but-2-en-1-one], the IC50 is below 0.1 µM.
Turning to `COCCN(C)C/C=C/C(=O)N1CC[C@@H](n2c(C3CC3)c(-c3ccc(Oc4ccccc4)cc3)c3c(N)ncnc32)C1` [Compound 96, (R,E)-1-(3-(4-amino-6-cyclopropyl-5-(4-phenoxyphenyl)-7H-pyrrolo[2,3-d]pyrimidin-7-yl)pyrrolidin-1-yl)-4-((2-methoxyethyl)(methyl)amino)but-2-en-1-one], the IC50 was below 0.1 µM.
Turning to `CN(C/C=C/C(=O)N1CC[C@@H](n2c(Cl)c(-c3ccc(Oc4cccc(F)c4)cc3)c3c(N)ncnc32)C1)C1CC1` [Compound 60, (R,E)-1-(3-(4-amino-6-chloro-5-(4-(3-fluorophenoxy)phenyl)-7H-pyrrolo[2,3-d]pyrimidin-7-yl)pyrrolidin-1-yl)-4-(cyclopropyl(methyl)amino)but-2-en-1-one], the IC50 is below 0.1 µM.
As for `CN(C/C=C/C(=O)N1CC[C@@H](n2c(C#N)c(-c3ccc(Oc4ccccc4)cc3)c3c(N)ncnc32)C1)[C@H]1CCOC1` [Compound 106, 4-amino-7-((R)-1-((E)-4-(methyl((S)-tetrahydrofuran-3-yl)amino)but-2-enoyl)pyrrolidin-3-yl)-5-(4-phenoxyphenyl)-7H-pyrrolo[2,3-d]pyrimidine-6-carbonitrile], the IC50 is below 0.1 µM.
To `CN(C/C=C/C(=O)N1CC[C@@H](n2c(C3CC3)c(-c3ccc(Oc4ccccc4)cc3)c3c(N)ncnc32)C1)[C@H]1CCOC1` [Compound 95, (E)-1-((R)-3-(4-amino-6-cyclopropyl-5-(4-phenoxyphenyl)-7H-pyrrolo[2,3-d]pyrimidin-7-yl)pyrrolidin-1-yl)-4-(methyl((S)-tetrahydrofuran-3-yl)amino)but-2-en-1-one] belongs below 0.1 µM.
Take `CN(C/C=C/C(=O)N1CC[C@@H](n2c(N)c(-c3ccc(Oc4ccccc4)cc3)c3c(N)ncnc32)C1)C1CC1` [Compound 162, (R,E)-4-(cyclopropyl(methyl)amino)-1-(3-(4,6-diamino-5-(4-phenoxyphenyl)-7H-pyrrolo[2,3-d]pyrimidin-7-yl)pyrrolidin-1-yl)but-2-en-1-one]: the IC50 was below 0.1 µM.
On to `COCCN(C/C=C/C(=O)N1CC[C@@H](n2c(C)c(-c3ccc(Oc4ccccc4)cc3)c3c(N)ncnc32)C1)CCOC` [Compound 79, (R,E)-1-(3-(4-amino-6-methyl-5-(4-phenoxyphenyl)-7H-pyrrolo[2,3-d]pyrimidin-7-yl)pyrrolidin-1-yl)-4-(bis(2-methoxyethyl)amino)but-2-en-1-one], for which the IC50 is below 0.1 µM.
In the case of `CN(C/C=C/C(=O)N1CC[C@@H](n2c(C3CC3)c(-c3ccc(Oc4cccc(F)c4)cc3)c3c(N)ncnc32)C1)C1CC1` [Compound 99, (R,E)-1-(3-(4-amino-6-cyclopropyl-5-(4-(3-fluorophenoxy)phenyl)-7H-pyrrolo[2,3-d]pyrimidin-7-yl)pyrrolidin-1-yl)-4-(cyclopropyl(methyl)amino)but-2-en-1-one], the IC50 lay within 0.1 to 1 µM.
Take `COc1c(-c2ccc(Oc3ccccc3)cc2)c2c(N)ncnc2n1[C@@H]1CCN(C(=O)/C=C/CN(C)C2CC2)C1` [Compound 89, (R,E)-1-(3-(4-amino-6-methoxy-5-(4-phenoxyphenyl)-7H-pyrrolo[2,3-d]pyrimidin-7-yl)pyrrolidin-1-yl)-4-(cyclopropyl(methyl)amino)but-2-en-1-one]: the IC50 was below 0.1 µM.
To `Cc1c(-c2ccc(Cl)cc2)c2c(N)ncnc2n1-c1cccc(N(C)C(=O)/C=C/CN(C)C2CC2)c1` [Compound 48, (E)-N-(3-(4-amino-5-(4-chlorophenyl)-6-methyl-7H-pyrrolo[2,3-d]pyrimidin-7-yl)phenyl)-4-(cyclopropyl(methyl)amino)-N-methylbut-2-enamide] belongs below 0.1 µM; to `Cc1c(-c2ccc(Oc3ccccc3)cc2)c2c(N)ncnc2n1[C@@H]1CCN(C(=O)/C=C/CN(C)[C@H]2CCOC2)C1` [Compound 129, (E)-1-((R)-3-(4-amino-6-methyl-5-(4-phenoxyphenyl)-7H-pyrrolo[2,3-d]pyrimidin-7-yl)pyrrolidin-1-yl)-4-(methyl((S)-tetrahydrofuran-3-yl)amino)but-2-en-1-one], below 0.1 µM.
The value for `CN(C/C=C/C(=O)N1CC[C@@H](n2c(C(N)=O)c(-c3ccc(Oc4ccccc4)cc3)c3c(N)ncnc32)C1)C1CC1` [Compound 126, (R,E)-4-amino-7-(1-(4-(cyclopropyl(methyl)amino)but-2-enoyl)pyrrolidin-3-yl)-5-(4-phenoxyphenyl)-7H-pyrrolo[2,3-d]pyrimidine-6-carboxamide] was below 0.1 µM.
As to `Cc1c(-c2ccc(Oc3ccccc3)cc2)c2c(N)ncnc2n1[C@@H]1CCN(C(=O)/C=C/CN(C)[C@@H]2CCOC2)C1` [Compound 130, (E)-1-((R)-3-(4-amino-6-methyl-5-(4-phenoxyphenyl)-7H-pyrrolo[2,3-d]pyrimidin-7-yl)pyrrolidin-1-yl)-4-(methyl((R)-tetrahydrofuran-3-yl)amino)but-2-en-1-one], the IC50 was below 0.1 µM.
Take `CC(C)c1c(-c2ccc(Oc3ccccc3)cc2)c2c(N)ncnc2n1[C@@H]1CCN(C(=O)/C=C/CN(C)C2CC2)C1` [Compound 118, (R,E)-1-(3-(4-amino-6-isopropyl-5-(4-phenoxyphenyl)-7H-pyrrolo[2,3-d]pyrimidin-7-yl)pyrrolidin-1-yl)-4-(cyclopropyl(methyl)amino)but-2-en-1-one]: the half-inhibitory concentration (IC50) was in the range of 0.1 to 1 µM.
The value for `CN(C)C/C=C/C(=O)N1CC[C@@H](n2c(C3CC3)c(-c3ccc(Oc4ccccc4)cc3)c3c(N)ncnc32)C1` [Compound 100, (R,E)-1-(3-(4-amino-6-cyclopropyl-5-(4-phenoxyphenyl)-7H-pyrrolo[2,3-d]pyrimidin-7-yl)pyrrolidin-1-yl)-4-(dimethylamino)but-2-en-1-one] was below 0.1 µM; that for `COCCN(C/C=C/C(=O)N1CC[C@@H](n2c(C#N)c(-c3ccc(Oc4ccccc4)cc3)c3c(N)ncnc32)C1)CCOC` [Compound 105, (R,E)-4-amino-7-(1-(4-(bis(2-methoxyethyl)amino)but-2-enoyl)pyrrolidin-3-yl)-5-(4-phenoxyphenyl)-7H-pyrrolo[2,3-d]pyrimidine-6-carbonitrile] was below 0.1 µM.
For `CCc1c(-c2ccc(Oc3ccccc3)cc2)c2c(N)ncnc2n1[C@@H]1CCN(C(=O)/C=C/CN(C)C2CC2)C1` [Compound 115, (R,E)-1-(3-(4-amino-6-ethyl-5-(4-phenoxyphenyl)-7H-pyrrolo[2,3-d]pyrimidin-7-yl)pyrrolidin-1-yl)-4-(cyclopropyl(methyl)amino)but-2-en-1-one], the IC50 was 0.1 to 1 µM.
Take `COCCN(C)C/C=C/C(=O)N1CC[C@@H](n2c(F)c(-c3ccc(Oc4ccccc4)cc3)c3c(N)ncnc32)C1` [Compound 49, (R,E)-1-(3-(4-amino-6-fluoro-5-(4-phenoxyphenyl)-7H-pyrrolo[2,3-d]pyrimidin-7-yl)pyrrolidin-1-yl)-4-((2-methoxyethyl)(methyl)amino)but-2-en-1-one]: the IC50 was below 0.1 µM.
